Experimental data: patent US20230052740A1, “MODULATORS OF CIRCADIAN RHYTHMS AND USES THEREOF” (The Regents of the University of California, priority 2019, published 2023)
Read-outs that look alike come from different tables or passages of the source.

Assays:
C3H/HeN mice = assay: Re-entrainment of running wheel activity after 6 h advance of dark onset (jet-lag model); assay type: in vivo; conditions: 30 μg/mouse s.c., 3 days, WT; in words
Excerpt: Male and female C3H/HeN (C3H) wild-type (WT), MT1 knockout (MT1KO), and MT2 knockout (MT2KO) mice (average 6.28 months) used in this study were raised in our breeding colony at University at Buffalo. […] Genotype was confirmed using tail samples at the end of each experiment and was verified periodically during the tenure of the colony. The strains of mice in our breeding colony were re-derived periodically by backcrossing with WT mice to reduce genetic drift.
Mice were group housed (3-5 per cage) with corncob bedding in polycarbonate translucent cages (30×19 cm) and maintained in a 14/10 light-dark (LD) cycle (Zeitgeber time 0 or ZT0 corresponds to Lights ON and ZT 14 to Lights OFF) in temperature and humidity controlled rooms with ad libitum access to food and water in the Laboratory Animal Facility at the University at Buffalo. Light levels were 200-300 lux at the level of the cage. Treatments and animal care performed in the dark were under a dim red safelight (15 watts, Kodak 1A filter) with illuminance of less than 3-5 lux (Benloucif, S. & Dubocovich, M. L. J Biol Rhythms 11, 113-125, (1996). All experimental procedures using mice were conducted in accordance with guidelines set forth by the National Institutes of Health and approved by the University at Buffalo Institutional Animal Care and Use Committee.
Circadian rhythm phase was determined for each mouse using the onset of running wheel activity defined as CT12 (Circadian Time 12). Running wheel activity was measured continuously via magnetic microswitches detecting wheel revolutions with a computer equipped with Clocklab data collection Software™ (Actimetrics: Wilmette, Ill.). All actigraphy data was visualized and analyzed using ClockLab™ and MATLAB™ software. All mice were individually housed in cages (33×15 cm) equipped with running wheels in light-tight ventilated cabinets with controlled temperature and LD cycles (Phenome Technologies: Skokie, Ill.). Male and female mice were housed in separate cabinets for all experiments.
Male and female C3H WT, MT1KO, and MT2KO mice (3 to 6 months) were maintained under a 12:12 LD cycle for at least 2 weeks prior experimental manipulations to allow stable entrainment to dark onset before advance of the LD cycle. Actigraphy data was recorded as described above and all experiment protocols performed as described (Dubocovich, M. L. et al., J Pineal Res 39, 113-120, 2005). On the first day of treatment, the dark onset was advanced 6 h. […] Post treatment, mice were given 14-20 days to re-entrain running wheel activity onsets to the new dark onset. Using exported running wheel activity onsets from actograms, onset hours advanced each day were determined by subtracting this value each day from the average onset of running wheel activity for 3 days prior to treatment for each mouse. Further, using the data from this calculation combined with visualization of actograms, the number of days to reach stable re-entrainment was determined for each mouse.
All statistical analyses as described in further detail for each experiment were conducted using GraphPad Prism 8™ (La Jolla, Calif.). All data sets were visualized for normality using QQ plots of predicted vs. actual residuals. Actigraphy data was generated for visualization blind to treatment prior to the quantification and statistical analysis stages. […] Data in FIGS. 4F & 4G were compared via a two-way ANOVA (3×2: genotype x treatment) with Tukey's post hoc analyses (P<0.05). […]

hMT1 [1] = biological target: T1, hMT1 (Homo sapiens, UniProt P48039); assay: 2-[125I]-iodomelatonin competition binding, CHO cell membranes; conditions: CHO-hMT1; affinity shift by G protein inactivation
Method: For receptor binding studies, '7447 was dissolved in 50% DMSO/50% ethanol for 13 mM stock solution, diluted 1/10 in 100% ethanol then 1/10 again in 50% ethanol/50% Tris-HCl buffer. Both '3384 and '4226 were dissolved in 100% ethanol for 13 mM stock solutions and then diluted 1/10 in 50% ethanol/50% Tris-HCl buffer. Further dilutions were done in Tris-HCl buffer.
Assays were incubated for 1 hour at 25° C. Bound radioligand was separated from freeby rapidvacuum filtration using glass microfiber filters (Whatman, Krackeler Scientific, Inc., Albany N.Y., USA) saturated in 0.5% polyethylenimine solution.
Affinity shifts or lack thereof with G protein inactivation indicate apparent efficacy (Lefkowitz, R. J. et al., J Biol Chem 251, 4686-4692, 1976) as ligands are classified as agonists (ΔpKi% MLT>20%), antagonists (ΔpKi% MLT<20%, >−20%), or inverse agonists (ΔpKi% MLT<−20%) accordingly.

hMT1 [2] = biological target: T1, hMT1; assay: cAMP assay (GloSensor), isoproterenol-stimulated cAMP in HEK cells; assay type: cell-based; parameters: expressed in transfected cells; host or cells: HEK-T (HEK-293 T) cells, co-transfected with GloSensor DNA; conditions: agonist; for Emax: normalized to melatonin response, read-out: MT1 % Emax (converted)
Method: HEK-293 T cells were maintained with complete Dulbecco's modified Eagle's medium (DMEM), which is composed of 10% fetal bovine serum (FBS), 2 mM L-glutamine, 100 units/ml penicillin G, 100 μg/ml streptomycin at 37° C. in the presence of 5% CO2
(§1) MT1 and MT2 receptors were tested using Promega's spilt luciferase based GboSensor cAMP biosensor technology. HEK-T cells were plated in 15 cm cell culture dish (at a density of 18 million cells) containing DMEM composed of 10% dialyzed FBS, 2 mM L-glutamine, 100 units/ml penicillin G, 100 μg/ml streptomycin for 4-6 hour. Then, cells were co-transfected with 8 μg of construct which encodes either MT1 or MT2 (de-Tangonized constructs) and […] of Glosensor DNA. Next day, transfected cells were seeded into poly-L-lysinecoated 384-well white clear bottom cell culture plates with complete DMEM with 1% dialized FBS at a density of 20,000 cells per well for another 24 h. The next day, cell medium were discarded and loaded with 20 μl of assay buffer (1×HBSS, 20 mM HEPES, pH 7.4, 0.1% BSA). To measure agonist activity of MT1 or MT2 receptor, 10 μl of test compound solution at 3× final concentration was added for 15 minutes followed by addition of 10 μl of luciferin/isoproterenol mixture (at a final concentration of 4 mM and 200 nM respectively) for another 15 mins for luminescence quantification. Then, plates were counted using SpectraMax luminescence reader (Molecular Device). Data were analyzed using GraphPad Prism 6.0.

MT2 [3] = biological target: T2, MT2 (Homo sapiens, UniProt P49286); assay: as above; assay type: cell-based; parameters: expressed in transfected cells; host or cells: HEK-T (HEK-293 T) cells, co-transfected with GloSensor DNA; conditions: for Emax: normalized to melatonin response, read-out: MT2 % Emax (converted)
T2 sequence (P49286 1-362): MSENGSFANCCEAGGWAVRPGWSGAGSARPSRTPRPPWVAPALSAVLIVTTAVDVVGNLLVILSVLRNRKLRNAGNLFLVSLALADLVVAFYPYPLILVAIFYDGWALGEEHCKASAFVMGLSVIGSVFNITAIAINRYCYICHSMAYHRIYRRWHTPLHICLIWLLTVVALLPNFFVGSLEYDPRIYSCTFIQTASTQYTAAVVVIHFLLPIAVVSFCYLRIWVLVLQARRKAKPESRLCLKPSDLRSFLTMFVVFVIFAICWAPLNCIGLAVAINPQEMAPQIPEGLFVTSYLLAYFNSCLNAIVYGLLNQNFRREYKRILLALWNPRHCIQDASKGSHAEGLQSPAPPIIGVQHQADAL
Method: as §1, with “Next day, transfected cells were seeded into poly-L-lysinecoated 384-well white clear bottom cell culture plates with complete DMEM with 1% dialized FBS at a density of 20,000 cells per well for another 24 h.” left out

MT2 [4] = biological target: T2, MT2; assay: Ligand bias quantification (G protein vs β-arrestin pathway, melatonin as reference); assay type: cell-based; parameters: expressed in transfected cells; host or cells: HEK-T cells (Gi/cAMP arm) and HTLA cells (β-arrestin Tango arm); conditions: at MT2; bias factor 10^ΔΔLog(Emax/EC50)

T1 sequence (P48039 whole entry): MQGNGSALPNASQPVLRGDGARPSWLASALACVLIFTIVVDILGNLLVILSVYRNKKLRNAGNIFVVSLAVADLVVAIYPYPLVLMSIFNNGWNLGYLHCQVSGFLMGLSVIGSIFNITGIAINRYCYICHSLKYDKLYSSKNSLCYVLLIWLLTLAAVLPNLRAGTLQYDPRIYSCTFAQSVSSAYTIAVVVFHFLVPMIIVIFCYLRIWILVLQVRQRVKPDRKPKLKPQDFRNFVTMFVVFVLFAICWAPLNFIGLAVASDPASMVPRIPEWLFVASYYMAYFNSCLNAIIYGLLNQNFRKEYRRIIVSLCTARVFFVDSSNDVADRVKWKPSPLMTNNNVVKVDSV

SMILES | rate of re-entrainment to the new light-dark cycle (C3H/HeN mice) | ΔpKi (pKi control − pKi inactive) (hMT1 [1]) | Emax (hMT1 [2]; HEK293, Table 1) [%] | MT1 pEC50 (hMT1 [2]; Table 1) | selectivity for the MT2 receptor (MT2 [3]) [fold] | Emax (MT2 [3]; HEK293, Table 1, agonist) [%] | EC50 (MT2 [3]; agonist, read-out: EC50 at MT2) [nM] | Bias (MT2 [4]) | Emax (hMT1 [2]; HEK293, Table 2) [%] | MT1 pEC50 (hMT1 [2]; Table 2) | Emax (MT2 [3]; HEK293, Table 2, agonist) [%] | MT2 pEC50 (MT2 [3]; Table 2, agonist)
COc1ccc2[nH]cc(CCNC(C)=O)c2c1 [Melatonin, reference compound] | accelerated re-entrainment | 1.19 | – | – | – | – | – | – | – | – | – | –
COc1ccc2c(c1)N(Cc1ccc(C#N)c(OC)c1)CCO2 [ZINC442850041] | – | – | 99 | 7.91 ± 0.04 | 25 | 97 | 0.47 | 0.046 | – | – | – | –
COc1ccc2c(c1)N(Cc1ccn(C)c(=O)c1)CCO2 [ZINC608506688] | – | – | – | – | – | – | – | 8.2 | 99 | 9.78 ± 0.13 | 89 | 8.60 ± 0.10
